Laboratory results from patent publication US20250242064A1, “CXCR4-TARGETING COMPOUNDS, AND METHODS OF MAKING AND USING THE SAME” (PROVINCIAL HEALTH SERVICES AUTHORITY, priority 2022, published 2025).
Where a SMILES comes first, the peptide text is derived from it. Bridges are numbered along the chain shown (N, C = ends). [ ]: non-standard residue; d: D form. The star is where a group is joined. X1 = O=C(O)CN1CCN(CC(=O)O)CCN(CC(=O)N[C@@H](CS(=O)(=O)O)C(=O)N[C@@H](CCCCNC(=O)CCCc2ccc(I)cc2)C(=O)*)CCN(CC(=O)O)CC1; 2Nal = N[C@@H](Cc1ccc2ccccc2c1)C(=O)O; Lys(iPr) = CC(C)NCCCC[C@H](N)C(=O)O

Assay: in vivo
Set-up: species or system mice
Conditions: male, mouse, iv, total radioactivity
Procedure: The Z138 Mantle cell lymphoma cell line was purchased from the American Type Culture Collection (ATCC©CRL-3001). The cell line was cultured in a 5% CO2 atmosphere at 37° C. in a humidified incubator with IMDM medium supplemented with 10% fetal bovine serum, 100 I.U./mL penicillin, and 100 μg/mL streptomycin.
[^68Ga]GaCl3 was eluted from an iThemba Labs generator with a total of 4 mL of 0.1 M HCl. The eluted [^68Ga]GaCl3 solution was added to 2 mL of concentrated HCl. This radioactive mixture was then added to a DGA resin column and washed with 3 mL of 5 M HCl. The column was then dried with air and the [^68Ga]GaCl3 (0.10-0.50 GBq) was eluted with 0.5 mL of water into a vial containing a solution of the unlabeled precursor (25 μg) in 0.7 mL HEPES buffer (2 M, pH 5.3). The reaction mixture was heated in a microwave oven (Danby; DMW7700WDB) for 1 min at power setting 2. The mixture was purified by semi-prep HPLC and quality control was performed via analytical HPLC with the co-injection of the unlabeled standard with a one-twelfth of the radiotracer. Radiochemical yields (decay-corrected) were >50% and radiochemical purities were >95%.
Animal experiments were performed in accordance with guidelines established by the Canadian Council on Animal Care, under a research protocol approved by the Animal Ethics Committee of the University of British Columbia. For all studies, male NOD.Cg-Rag1tm1Momll2rgtm1Wjl/SzJ (NRG) mice were used and cells injected in a 100 μL solution of 1:1 ratio of PBS/Matrigel. For preclinical imaging and biodistribution studies, 5×10^6 cells of Z138, cells were subcutaneously inoculated on the left or right flank and tumors were grown to a size of 200-300 mm^3. […]
Under isoflurane anesthesia (2-2.5% isoflurane in 2 L/min 02), mice were injected intravenously with [^68Ga]Ga-BL34L6 or [^68Ga]Ga-BL34L7. Mice were euthanized by CO2 inhalation after anesthesia with isoflurane. Tissues were harvested, washed in PBS, patted dry, weighed, and then assayed radioactivity on a gamma counter. Counted radioactivities were converted to percentage injected dose per gram of tissue (% ID/g) using a calibration curve.

[1] = NOD.Cg-Rag1tm1Mom Il2rgtm1Wjl/SzJ (NRG), Biodistribution: Adrenals
[2] = NOD.Cg-Rag1tm1Mom Il2rgtm1Wjl/SzJ (NRG), Biodistribution: Bone
[3] = NOD.Cg-Rag1tm1Mom Il2rgtm1Wjl/SzJ (NRG), Biodistribution: Brain
[4] = NOD.Cg-Rag1tm1Mom Il2rgtm1Wjl/SzJ (NRG), Biodistribution: Heart
[5] = NOD.Cg-Rag1tm1Mom Il2rgtm1Wjl/SzJ (NRG), Biodistribution: Kidneys
[6] = NOD.Cg-Rag1tm1Mom Il2rgtm1Wjl/SzJ (NRG), Biodistribution: Liver
[7] = NOD.Cg-Rag1tm1Mom Il2rgtm1Wjl/SzJ (NRG), Biodistribution: Lungs
[8] = NOD.Cg-Rag1tm1Mom Il2rgtm1Wjl/SzJ (NRG), Biodistribution: Muscle
[9] = NOD.Cg-Rag1tm1Mom Il2rgtm1Wjl/SzJ (NRG), Biodistribution: Pancreas
[10] = NOD.Cg-Rag1tm1Mom Il2rgtm1Wjl/SzJ (NRG), Biodistribution: Small Intestine
[11] = NOD.Cg-Rag1tm1Mom Il2rgtm1Wjl/SzJ (NRG), Biodistribution: Spleen
[12] = NOD.Cg-Rag1tm1Mom Il2rgtm1Wjl/SzJ (NRG), Biodistribution: Z138 Tumor
[13] = NOD.Cg-Rag1tm1Mom Il2rgtm1Wjl/SzJ (NRG), Ratio Tumor-to-Blood
[14] = NOD.Cg-Rag1tm1Momll2rgtm1Wjl/SzJ (NRG), Biodistribution: Blood
[15] = NOD.Cg-Rag1tm1Momll2rgtm1Wjl/SzJ (NRG), Biodistribution: Stomach
[16] = NOD.Cg-Rag1tm1Momll2rgtm1Wjl/SzJ (NRG), Biodistribution: Testes
[17] = NOD.Cg-Rag1tm1Momll2rgtm1Wjl/SzJ (NRG), Ratio Tumor-to-Bone
[18] = NOD.Cg-Rag1tm1Momll2rgtm1Wjl/SzJ (NRG), Ratio Tumor-to-Kidney
[19] = NOD.Cg-Rag1tm1Momll2rgtm1Wjl/SzJ (NRG), Ratio Tumor-to-Muscle
[20] = NOD.Cg-Rag1tm1Momll2rgtm1Wjl/SzJ (NRG), Ratio Tumor-to-Pancreas

CC(C)NCCCC[C@H](NC(=O)[C@H]1CCC(=O)N[C@@H](CCCCNC(=O)[C@H](CCCCNC(=O)CCCc2ccc(I)cc2)NC(=O)[C@H](CS(=O)(=O)O)NC(=O)CN2CCN(CC(=O)O)CCN(CC(=O)O)CCN(CC(=O)O)CC2)C(=O)N[C@@H](Cc2ccc(O)cc2)C(=O)N[C@@H](CCCCNC(C)C)C(=O)N[C@H](CCCNC(=N)N)C(=O)N[C@@H](Cc2ccc3ccccc3c2)C(=O)N[C@H](C)C(=O)N1)C(N)=O [[^177Lu]Lu-BL34L11, metal not drawn] (K(X1)Y[Lys(iPr)][dR][2Nal][dA][dE][Lys(iPr)]-NH2; lactam N-7)
tissue uptake at 24 h [1]: 2.44 %ID/g
tissue uptake at 72 h [1]: 1.8 %ID/g
tissue uptake at 120 h [1]: 1.62 %ID/g
tissue uptake at 24 h [2]: 0.71 %ID/g
tissue uptake at 72 h [2]: 0.42 %ID/g
tissue uptake at 120 h [2]: 0.29 %ID/g
tissue uptake at 24 h [3]: 0.18 %ID/g
tissue uptake at 72 h [3]: 0.07 %ID/g
tissue uptake at 120 h [3]: 0.05 %ID/g
tissue uptake at 24 h [4]: 1.8 %ID/g
tissue uptake at 72 h [4]: 1.1 %ID/g
tissue uptake at 120 h [4]: 0.76 %ID/g
tissue uptake at 24 h [5]: 2.67 %ID/g
tissue uptake at 72 h [5]: 1.19 %ID/g
tissue uptake at 120 h [5]: 0.75 %ID/g
tissue uptake at 24 h [6]: 1.99 %ID/g
tissue uptake at 72 h [6]: 1.1 %ID/g
tissue uptake at 120 h [6]: 0.45 %ID/g
tissue uptake at 24 h [7]: 4.88 %ID/g
tissue uptake at 72 h [7]: 2.86 %ID/g
tissue uptake at 120 h [7]: 1.91 %ID/g
tissue uptake at 24 h [8]: 0.76 %ID/g
tissue uptake at 72 h [8]: 0.38 %ID/g
tissue uptake at 120 h [8]: 0.21 %ID/g
tissue uptake at 24 h [9]: 1.05 %ID/g
tissue uptake at 72 h [9]: 0.45 %ID/g
tissue uptake at 120 h [9]: 0.53 %ID/g
tissue uptake at 24 h [10]: 0.79 %ID/g
tissue uptake at 72 h [10]: 0.38 %ID/g
tissue uptake at 120 h [10]: 0.21 %ID/g
tissue uptake at 24 h [11]: 2.13 %ID/g
tissue uptake at 72 h [11]: 1.96 %ID/g
tissue uptake at 120 h [11]: 1.86 %ID/g
tissue uptake at 24 h [12]: 26.6 %ID/g
tissue uptake at 72 h [12]: 35 %ID/g
tissue uptake at 120 h [12]: 41.2 %ID/g
tissue to tissue ratio at 24 h [13]: 3.42
tissue to tissue ratio at 72 h [13]: 12.3
tissue to tissue ratio at 120 h [13]: 25
tissue to tissue ratio at 72 h (NOD.Cg-Rag1tm1Mom Il2rgtm1Wjl/SzJ (NRG), Ratio Tumor-to-Muscle): 91.8
tissue uptake at 24 h [14]: 7.82 %ID/g
tissue uptake at 72 h [14]: 2.84 %ID/g
tissue uptake at 120 h [14]: 1.6 %ID/g
tissue uptake at 24 h [15]: 0.75 %ID/g
tissue uptake at 72 h [15]: 0.32 %ID/g
tissue uptake at 120 h [15]: 0.24 %ID/g
tissue uptake at 24 h [16]: 2.64 %ID/g
tissue uptake at 72 h [16]: 1.47 %ID/g
tissue uptake at 120 h [16]: 2.04 %ID/g
tissue to tissue ratio at 24 h [17]: 28.3
tissue to tissue ratio at 72 h [17]: 53.7
tissue to tissue ratio at 120 h [17]: 55.9
tissue to tissue ratio at 24 h [18]: 10.1
tissue to tissue ratio at 72 h [18]: 29.3
tissue to tissue ratio at 120 h [18]: 54.2
tissue to tissue ratio at 24 h [19]: 35.8
tissue to tissue ratio at 120 h [19]: 190
tissue to tissue ratio at 24 h [20]: 25.9
tissue to tissue ratio at 72 h [20]: 71.7
tissue to tissue ratio at 120 h [20]: 122
